Data on 58 compounds can be found in the METLIN SMRT retention time set (Domingo-Almenara et al. 2019).

The data set is described as follows: gradient 5% acetonitrile 3 min, to 50% in 2 min, to 85% in 15 min, held 3 min, 100 µL/min. The settings on record: column: Zorbax Extend-C18 2.1 x 50 mm; eluents: water / acetonitrile, 0.1% formic acid. The procedure, abridged:
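Pure standards were run in mixtures of ~100 molecules by HPLC coupled to a quadrupole time-of-flight mass spectrometer. The column was a Zorbax Extend-C18 (2.1 × 50 mm, 1.8 μm) at 100 μL/min, with water and acetonitrile each containing 0.1% formic acid, in positive and negative ionization mode. Dead and dwell volumes were 40 μL and 900 μL. Retention time was taken from computationally picked adduct peaks, each manually inspected, with data collected over 3 months.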
Consider `CCc1ccc(S(=O)(=O)NCCc2csc3nc(-c4cccc(F)c4)nn23)s1`, for which the RP-LC retention time worked out at 994 s. In turn, `CC1(c2noc(C3CCOCC3)n2)CCN(Cc2c(F)cccc2Cl)CC1` returned an RP-LC retention time of 612 s. `CCOc1ccc(NC(=O)c2oc3cc(C)ccc3c2C)c2cccnc12` gave an RP-LC retention time of 753 s.

`O=C(c1cccs1)N1CCC2(CC1)NC(=O)N(Cc1ccc(F)cc1)C2=O`: the RP-LC retention time amounted to 764 s. With `O=C(N1CCC(NS(=O)(=O)c2cccc(F)c2)CC1)N1C[C@H]2C[C@H](C1)[C@H]1CCCC(=O)N1C2` the figure was 704 s. With `Cc1nnc(CNC(=O)c2cc(-c3cccs3)[nH]n2)o1` the figure was 582 s. For `Cn1cc(CC(=O)N2CCN(S(=O)(=O)C3CC3)CC2)c2ccccc21` the value was 577 s; for `Cn1c(CN2CCN(C(=O)NCc3ccco3)CC2)nc2cc(C(=O)N3CCCC3)ccc21`, 590 s.

`Cc1noc(-c2ccnc(-n3cnc(C(=O)NCc4ccccc4)c3)c2)n1`: the RP-LC retention time stood at 806 s. With `CC(C)c1cc(C2CCCN2C(=O)c2ccccc2)no1` (stereo not drawn) the figure was 847 s; with `CCS(=O)(=O)c1nc2ccc(NS(=O)(=O)c3cc(F)ccc3F)cc2s1`, 854 s.

`CCOC(=O)c1nc2cc(OC)c(OC)cc2[nH]c1=O` showed an RP-LC retention time of 620 s. For `NC(=O)c1ccc(Oc2ccc(C(N)=O)cc2)cc1` the value was 654 s; for `CCc1ccc(-n2ncc3c(=O)n(Cc4nc(-c5ccc(F)c(Cl)c5)no4)cnc32)cc1`, 1250 s. With `Cc1cnnn1-c1ccc(C(=O)Nc2cc(Cl)ccc2Cl)cc1` the figure was 815 s; with `Cc1[nH]c(C(=O)N2CCC(CC(=O)NCc3ccccc3)CC2)c(C)c1C(=O)OC(C)C`, 802 s.

In the case of `CS(=O)(=O)N1CCC(OC2CCN(C(=O)Nc3ccccc3F)CC2)CC1`, the RP-LC retention time was 703 s.

The compound `O=C(Nc1nccs1)C1CCN(C(=O)Cc2c(F)cccc2Cl)CC1` registered an RP-LC retention time of 717 s. With `CCn1c(CCNC(=O)c2ccc(C)cc2C)nc2cccnc21` the figure was 694 s. Compound `O=C(NCc1ccc(F)cc1)C1CCCN(c2ccc(-c3ccco3)nn2)C1` (stereo not drawn) gave an RP-LC retention time of 622 s. With `O=C(CN1C(=O)CN(C(=O)Nc2ccccc2)c2ccccc21)NCc1ccccn1` the figure was 587 s; with `COc1ccccc1-c1csc(-c2nnn(-c3ccc(C)cc3)c2N)n1`, 1160 s; with `CCS(=O)(=O)Nc1ccc2nc(N3CCN(c4ccc(OC)cc4)CC3)cc(C(=O)O)c2c1`, 626 s.

Compound `Cc1nnc(-c2cc(C)n(CC(=O)Nc3cccc(Cl)c3)c2C)o1` gave an RP-LC retention time of 805 s.

For `O=[N+]([O-])c1ccccc1S(=O)(=O)c1ccccc1[N+](=O)[O-]`, the RP-LC retention time came out at 840 s. In turn, `O=S(=O)(NCCc1noc(-c2ccccc2)n1)c1ccc(Cl)cc1` displayed an RP-LC retention time of 980 s. For `CCOC(=O)c1cnc(N2CCN(c3ccc(F)cc3)CC2)c2ccccc12` the value was 1270 s; for `Cc1ccc(-c2c(N3CCN(c4ccccn4)CC3)c(=O)c2=O)cc1`, 660 s. With `O=C(NCc1ccc2c(c1)OCO2)C1CCCN(c2ccc(N3CCOCC3)nn2)C1` (stereo not drawn) the figure was 609 s; with `Cc1cccc(C(=O)Nc2ccc3c(c2)Sc2ncccc2C(=O)N3C)c1`, 809 s; with `CC(C)(C)CC(=O)N1C[C@H]2C[C@H](C1)[C@H]1CCCC(=O)N1C2`, 654 s. For `Cc1cccc(-c2noc(Cn3ccn(-c4ccccc4)c(=O)c3=O)n2)c1` the value was 838 s; for `CN1C(=O)c2ccccc2Sc2cc(-c3noc(CNC(=O)c4ccco4)n3)ccc21`, 702 s; for `Cc1c(-c2ccc(O)cc2)n(Cc2ccc(OCCN3CCCCCC3)cc2)c2ccc(O)cc12`, 720 s. `O=C(NCc1ccccn1)c1ccc(-c2nc3cccnc3n(C3CCCC3)c2=O)cc1`: the RP-LC retention time came out at 778 s.

`CCN(CC)C(=O)c1cnc2snc(C)c2c1N1CCC(C(=O)Nc2cc(OC)c(OC)c(OC)c2)CC1` displayed an RP-LC retention time of 810 s. With `COc1ccc(NC(=O)CSc2nc3nc(C)cc(C)n3n2)c(OC)c1` the figure was 713 s.

`CC(C(=O)N1CCCC1)C1CCN(C(=O)c2ccc3nc(-c4ccccc4)oc3c2)CC1` (stereo not drawn) registered an RP-LC retention time of 818 s.

The compound `CC(C)c1cc(N2CCN(C(=O)c3ccc(N(C)C)cc3)CC2)nc2nncn12` registered an RP-LC retention time of 606 s.

Consider `Cc1cccc(C)c1NC(=O)Cn1cnc2nc(N3CCCC(C(=O)NC4CC4)C3)sc2c1=O` (stereo not drawn), for which the RP-LC retention time was 678 s. In turn, `CN1CCN(CCNC(=O)c2cccc(N3CCNC(c4ccccc4)C3)n2)CC1` (stereo not drawn) yielded an RP-LC retention time of 549 s.

The compound `Cn1cc(CC(=O)NCc2ccc(F)c(Cl)c2)c2cccnc21` returned an RP-LC retention time of 725 s. In turn, `Cc1ccc2c(c1)C(O)(CC(=O)c1cccc(-n3cccc3)c1)C(=O)N2` (stereo not drawn) returned an RP-LC retention time of 711 s. Regarding `COc1ccc(CCc2nc3nccc(-c4cccnc4)n3n2)cc1`, the RP-LC retention time came out at 720 s. For `CN1C(=O)C(c2c(-c3ccc(Cl)cc3)[nH]c3[nH]c(=O)[nH]c(=O)c23)c2ccccc21` (stereo not drawn) the value was 716 s; for `O=C(c1cc(F)ccc1F)N1CCC2(CC1)N=C(c1ccc(Cl)cc1)NO2`, 902 s.

`O=C(c1ccncc1)N1CC(C(=O)N2CCN(c3ccccn3)CC2)C2(CCCCC2)C1` (stereo not drawn) showed an RP-LC retention time of 570 s. With `O=C(c1ccc2c(c1)ncn2CCN1CCCC1)N1CCN(c2ccccc2F)CC1` the figure was 596 s; with `CSc1ccc(NC(=O)NC2CCN(c3cc(C)cc(C)c3)C2=O)cc1` (stereo not drawn), 916 s; with `COc1ccc(-c2noc(C3CCCN3C(=O)c3cccs3)n2)cc1` (stereo not drawn), 924 s.

With `Cc1ccc(-c2nc(CN3CCCC3=O)no2)cc1`, the RP-LC retention time amounted to 782 s. With `O=C(c1cc(F)ccc1Cl)N1CCN(c2cc(-c3ccc(F)cc3)[nH]n2)CC1` the figure was 847 s. For `Cn1nccc1C(=O)Nc1c(-c2cccc(F)c2)nc2sc(N3CCCCC3)nn12` the value was 882 s; for `O=C(Cc1csc(-n2cccc2)n1)N1CCC(c2nc3ccccc3[nH]2)CC1`, 558 s. With `Cc1nn(CCCC(=O)N2CCN(c3ccccn3)CC2)c(=O)c2noc(C)c12` the figure was 580 s. On to `COc1ccc(CNC(=O)C2CCN(S(=O)(=O)c3cc(-c4noc(C)n4)cs3)CC2)cc1`, for which the RP-LC retention time amounted to 831 s. In turn, `COc1ccc2[nH]c(=O)c(CCC(=O)NCCCOC(C)C)cc2c1` had an RP-LC retention time of 649 s.

As for `COc1ccc(N/C=C2\C(=O)CCc3c2oc2cc(Cl)c(O)c(Cl)c32)cc1`, the RP-LC retention time is 1170 s.
